According to patent US20130150346A1, “Use of FAAH Inhibitors for Treating Parkinson's Disease and Restless Legs Syndrome” (Ironwood Pharmaceutical, Inc., priority 2010, published 2013):

Assay: Plasma L-DOPA levels by LC-MS/MS in MPTP-lesioned marmosets
Assay type: in vivo, common marmosets (Callithrix jacchus)
Conditions: URB597 10 mg/kg p.o., 2 h post L-DOPA, 4 h post URB597, p>0.05, paired t-test
Method: Six common marmosets (Callithrix jacchus; female; weight, 350-500 g (Harlan, Madison, Wis., USA)) were kept under conditions of controlled temperature (25±2° C.) and a 12-hour light/dark cycle (lights on 6:30 a.m.). Animals were group housed and had access to food, fresh-fruit supplements and water ad libitum and their home cage environment was enriched with primate toys, perches and auditory stimuli. Prior to start of studies, animals were acclimatized to handling, blood collection and administration of treatments (oral syringe feeding and subcutaneous injection) as well as transfer to observation cages for assessment of behavior. A parkinsonian syndrome was induced by once-daily subcutaneous administration of MPTP hydrochloride (Sigma, Canada; 2 mg/kg base concentration in 0.9% saline) for 5 consecutive days. Following this, animals were allowed to recover for 12 weeks to allow parkinsonian symptoms to develop and stabilize. […] Treatment-related complications including dyskinesia and psychosis-like behaviors were evoked by twice-daily treatment with L-DOPA p.o. (as Prolopa®, Roche Canada, Ontario, equivalent to 15 mg/kg L-DOPA and 3.5 mg/kg benserazide) for a minimum of 30 days. […]
The effect of oral treatment with either vehicle or URB597 (10 mg/kg) on plasma levels of L-DOPA was assessed at the beginning of the period of peak L-DOPA effect, i.e., 2 h after L-DOPA administration. […]

SMILES: NC(=O)c1cccc(-c2cccc(OC(=O)NC3CCCCC3)c2)c1 [URB597]
- effect of URB597 on plasma L-DOPA levels: did not alter
